For 10 molecules, TGI and GI50 results are on record in PubChem BioAssay (NCI).

As a reminder, the TGI is the concentration at which net growth stops. Read a low TGI as greater sensitivity of the cells. For orientation: GI50 means the concentration at which growth is held to half of that of the control.

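Assay format: 96-well plates, 48-hour exposure. GI50: concentration for 50% inhibition of growth. At the TGI there is no net growth.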 Where a SMILES comes first, the peptide text is derived from it. The star is where a group is joined. Fmoc = O=C(OCC1c2ccccc2-c2ccccc21)*; OBn = c1ccc(CO*)cc1; tBu = CC(C)(C)*

Among the test systems are NCI/ADR-RES ovarian; CAKI-1 renal; BT-549 breast; IGROV1 ovarian; MCF7 breast; HCC-2998 colon; OVCAR-8 ovarian; 786-0 renal; SK-MEL-28 melanoma; ACHN renal.
Assay in all cases: DTP human tumour cell line panel, 48 h

For the molecule `C[C@]12CC[C@H]3[C@@H](CCC4=C/C(=N/OCCN5CCCCC5)CC[C@@]43C)[C@@H]1CC[C@@H]2O`, the total growth inhibition concentration (TGI) with NCI/ADR-RES ovarian was 54.4 µM; with CAKI-1 renal it was 55.3 µM; in the experiment on BT-549 breast, 36 µM; in the experiment on IGROV1 ovarian it was over 100 µM; in the experiment with MCF7 breast it was 26.8 µM; with HCC-2998 colon, 27.4 µM. Besides, the TGI in the experiment with OVCAR-8 ovarian is over 100 µM; with 786-0 renal it was over 100 µM; in the experiment with SK-MEL-28 melanoma, 28 µM; with ACHN renal, 51.6 µM.

With `C=C(CCC(=O)N(CCc1c[nH]c2ccccc12)C(=O)c1ccccc1CSCC)C(=O)OC`, the concentration for total growth inhibition (TGI) is over 100 µM in the experiment on NCI/ADR-RES ovarian; over 100 µM in the experiment with CAKI-1 renal; over 100 µM in the experiment with BT-549 breast; over 100 µM in the experiment with IGROV1 ovarian; over 100 µM in the experiment with MCF7 breast; over 95.4 µM in the experiment with HCC-2998 colon. The TGI with OVCAR-8 ovarian, in the experiment with 786-0 renal, in the experiment with SK-MEL-28 melanoma and in the experiment on ACHN renal was over 100 µM each time.

`N#Cc1cc2c(n(C3OC(CO)C(O)C(O)C3O)c1=S)CCC2` (stereo unspecified): the TGI with NCI/ADR-RES ovarian, in the experiment on CAKI-1 renal, with BT-549 breast, in the experiment on IGROV1 ovarian, with MCF7 breast and in the experiment on HCC-2998 colon was over 100 µM in each case. Moreover, the TGI in the experiment on OVCAR-8 ovarian, with 786-0 renal, in the experiment on SK-MEL-28 melanoma and in the experiment on ACHN renal was over 100 µM each time.

As to `COc1ccccc1-c1cc(=O)c2cccnc2[nH]1`, the TGI in the experiment with NCI/ADR-RES ovarian, with CAKI-1 renal, in the experiment with BT-549 breast, in the experiment on IGROV1 ovarian, with MCF7 breast and with HCC-2998 colon was over 100 µM in each case. The concentration for total growth inhibition (TGI) with OVCAR-8 ovarian, with 786-0 renal, in the experiment with SK-MEL-28 melanoma and in the experiment on ACHN renal was over 100 µM throughout.

With `CCOC1OC(C)(C=C(C#N)C#N)CCC1C` (stereo unspecified), the TGI is over 88.7 µM with NCI/ADR-RES ovarian; 96.2 µM with CAKI-1 renal; over 70.3 µM in the experiment on BT-549 breast; 36.8 µM with IGROV1 ovarian; over 100 µM in the experiment with MCF7 breast; over 74.3 µM in the experiment with HCC-2998 colon. The TGI in the experiment on OVCAR-8 ovarian is over 68 µM; with 786-0 renal it was over 89.2 µM; in the experiment on SK-MEL-28 melanoma, over 100 µM; in the experiment with ACHN renal, over 100 µM.

On to `Clc1ccc(-c2nn3c(COc4ccc(OCc5nnc6sc(-c7ccc(Cl)cc7)nn56)c(Cl)c4)nnc3s2)cc1`, for which the TGI is over 100 µM in the experiment on NCI/ADR-RES ovarian; 75.1 µM in the experiment on CAKI-1 renal; 52.7 µM in the experiment with BT-549 breast; 43.9 µM in the experiment on IGROV1 ovarian; over 100 µM with MCF7 breast; 44.9 µM with HCC-2998 colon. Also, the TGI is 75 µM with OVCAR-8 ovarian, 26.6 µM in the experiment on 786-0 renal, over 100 µM in the experiment on SK-MEL-28 melanoma and over 100 µM with ACHN renal.

Regarding `CC[P+](c1ccccc1)(N(C)C)N(C)C`, the total growth inhibition concentration (TGI) in the experiment on NCI/ADR-RES ovarian, with CAKI-1 renal, with BT-549 breast, with IGROV1 ovarian, in the experiment with MCF7 breast and in the experiment on HCC-2998 colon was over 100 µM in each case. Besides, the TGI with OVCAR-8 ovarian, in the experiment with 786-0 renal, in the experiment on SK-MEL-28 melanoma and in the experiment with ACHN renal was over 100 µM throughout.

With `CC(OC(C)(C)C)C(NC(=O)OCC1c2ccccc2-c2ccccc21)C(=O)NC(Cc1ccccc1)C(=O)OCc1ccccc1` (stereo unspecified) (Fmoc-Thr(tBu)-Phe-OBn; configuration not given here), the concentration for total growth inhibition (TGI) in the experiment on NCI/ADR-RES ovarian, with CAKI-1 renal, with BT-549 breast, in the experiment with IGROV1 ovarian, in the experiment with MCF7 breast and in the experiment with HCC-2998 colon was over 100 µM in each case. Also, the TGI in the experiment with OVCAR-8 ovarian, in the experiment with 786-0 renal, with SK-MEL-28 melanoma and with ACHN renal was over 100 µM throughout.

With `CCOC(=O)c1c(-c2ccc(Cl)cc2)c(C#N)c(=S)n(C2OC(COC(C)=O)C(OC(C)=O)C(OC(C)=O)C2OC(C)=O)c1C` (stereo unspecified), the TGI in the experiment with NCI/ADR-RES ovarian, in the experiment on CAKI-1 renal, in the experiment on BT-549 breast, in the experiment on IGROV1 ovarian, in the experiment with MCF7 breast and with HCC-2998 colon was over 100 µM in each case. Moreover, the TGI in the experiment with OVCAR-8 ovarian, with 786-0 renal, with SK-MEL-28 melanoma and in the experiment on ACHN renal was over 100 µM in each case. For the same molecule, the GI50 in the experiment with BT-549 breast is over 100 µM.

`CCOC(=O)CSc1nc(-c2ccc(Cl)cc2)c(C#N)c(=O)[nH]1`: the total growth inhibition concentration (TGI) with NCI/ADR-RES ovarian, in the experiment on CAKI-1 renal, in the experiment with BT-549 breast, in the experiment with IGROV1 ovarian, with MCF7 breast and with HCC-2998 colon was over 100 µM in each case. The TGI in the experiment on OVCAR-8 ovarian, in the experiment with 786-0 renal, in the experiment on SK-MEL-28 melanoma and in the experiment with ACHN renal was over 100 µM each time.
